According to PubChem BioAssay AID1963875 (Molecular Pharmacology Branch, DTP, NCI, 2024):

Tested on: KRAS-mutant PDC complex spheroid viability
Test: Anticancer human tumor 186277-243-T-J2-PDC patient-derived colon adenocarcinoma cell line growth inhibition [KRAS2]
Conditions: for IC50: curve of first compound; for viability, T/C: stronger effect = lower value
Description: Multicellular complex tumor spheroid response to RAS pathway inhibitors in combination with a targeted agents in patient-derived cell lines with oncogenic KRAS variants from multiple cancer types
A high-throughput screen of multi-cell type tumor spheroids was designed to identify active combinations of targeted small molecules and KRAS pathway inhibitors. Complex spheroids include a stromal component modeled by human endothelial cells (HUVEC) and fibroblasts modeled by human mesenchymal stem cells (MSCs). The concentration ranges selected for each drug and investigational agent were based upon clinically achievable concentrations if the clinical Cmax of the agent was known.
Compounds. The drugs and investigational agents: BI-3406 (NSC825286), BAY-293 (NSC824723), batoprotafib (TNO155; NSC825523), sotorasib (AMG 510; NSC818433), MRTX1257 (NSC819558), elimusertib (BAY 1895344; NSC800525), molibresib (GSK525762; NSC774829), temuterkib (LY3214996; NSC803410), venetoclax (NSC766270), alisertib (NSC759677), olaparib (NSC753686), talazoparib (NSC767125), erdafitinib (NSC781556), ipatasertib (NSC767898), cabozantinib (NSC761068), nintedanib (NSC756659), abemaciclib (NSC768073), docetaxel (NSC628503), trametinib (NSC758246), and sapanisertib (NSC764658) were obtained from the National Cancer Institute (NCI) Developmental Therapeutics Program Chemical Repository. The FDA-approved anticancer drug set is available from the Developmental Therapeutics Program. […] The stock solutions were prepared in dimethyl sulfoxide (DMSO, Sigma-Aldrich, St. Louis, MO, cat. D2650) at 800-fold the tested concentration and stored at -70 degrees C prior to their use. All drugs and investigational agents were tested over a range starting from a high concentration at or near the clinical Cmax and decreasing in half-log increments. If the clinical Cmax for an agent had not been determined, the highest concentration tested was 10 microM.
Cell Culture. All cells were maintained in an incubator at 37 degrees C and 5% CO2 with 95% humidity. The PDC lines were cultured according to standard operating procedures established by the NCI PDMR (https://pdmr.cancer.gov/sops/default.htm). Briefly, all PDCs were thawed and cultured in Matrigel-coated flasks prepared with a working solution of 1X Ham's F-12 nutrient mix, without supplementation (Invitrogen, Waltham, MA, cat. 11765054), 100 U/mL penicillin-streptomycin (Invitrogen, cat. 15140122), and 2.5% Matrigel (Corning Inc., Corning, NY, cat. 354248) for the first three passages. All PDCs were cultured in complete DMEM/F-12 media containing advanced DMEM/F-12 (Invitrogen, cat. 12634028), 4.9% defined fetal bovine serum, heat inactivated (HyClone Laboratories Inc., Logan, UT, cat. SH30070.03HI), 389 ng/mL hydrocortisone (Sigma-Aldrich, cat. H4001), 9.7 ng/mL human EGF recombinant protein (Invitrogen, cat. PHG0313), 23.4 microg/mL adenine (Sigma-Aldrich, cat. A2786), 97.3 U/mL penicillin-streptomycin (Invitrogen, cat. 15140122), 1.9 mM L-glutamine (Invitrogen, cat. 25030081), and 9.7 microM Y-27632 dihydrochloride (Tocris Bioscience, Bristol, United Kingdom, cat. 1254). The PDCs were cultured in complete DMEM/F12 media without 9.7 microM Y-27632 dihydrochloride for at least two passages prior to the screen. The established cell line HOP-62 was cultured in RPMI 1640 medium, HEPES (Invitrogen, cat. 22400105) with 10% defined fetal bovine serum (HyClone Laboratories Inc., cat. SH30070.03) and 2 mM L-glutamine (Invitrogen, cat. 25030081). The pooled donor HUVEC were cultured in endothelial cell growth medium 2 (PromoCell, Heidelberg, Germany, cat. C-22011) and the hMSC were cultured in mesenchymal stem cell growth medium 2 (PromoCell, cat. C-28009). For all experiments, HUVEC and hMSC were used at passages </=5, while the malignant cell lines were used at passages </=15. […]

[1] = second compound 0.1 µM, first compound 0.00316 µM
[2] = second compound 0.1 µM, first compound 0.01 µM
[3] = second compound 0.1 µM, first compound 0.0316 µM
[4] = second compound 0.1 µM, first compound 0.1 µM
[5] = second compound 0.316 µM, first compound 0.00316 µM
[6] = second compound 0.316 µM, first compound 0.01 µM
[7] = second compound 0.316 µM, first compound 0.0316 µM
[8] = second compound 0.316 µM, first compound 0.1 µM
[9] = second compound 1 µM, first compound 0.00316 µM
[10] = second compound 1 µM, first compound 0.01 µM
[11] = second compound 1 µM, first compound 0.0316 µM
[12] = second compound 1 µM, first compound 0.1 µM
[13] = second compound 3.16 µM, first compound 0.01 µM
[14] = second compound 3.16 µM, first compound 0.0316 µM
[15] = second compound 3.16 µM, first compound 0.1 µM
[16] = second compound 10 µM, first compound 0.00316 µM
[17] = second compound 10 µM, first compound 0.01 µM
[18] = second compound 10 µM, first compound 0.0316 µM
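For viability, T/C in this document: viability read after seven days of compound exposure; 100% = DMSO vehicle-treated spheroids so lower means less viable.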

| SMILES | IC50 (second compound 0.1 µM) | IC50 (second compound 0.316 µM) | IC50 (second compound 1 µM) | IC50 (second compound 3.16 µM) | IC50 (second compound 10 µM) | viability, T/C [1] | viability, T/C [2] | viability, T/C [3] | viability, T/C [4] | viability, T/C [5] | viability, T/C [6] | viability, T/C [7] | viability, T/C [8] | viability, T/C [9] | viability, T/C [10] | viability, T/C [11] | viability, T/C [12] | viability, T/C [13] | viability, T/C [14] | viability, T/C [15] | other results |
| --- | --- | --- | --- | --- | --- | --- | --- | --- | --- | --- | --- | --- | --- | --- | --- | --- | --- | --- | --- | --- | --- |
| CCN1CCN(Cc2ccc(Nc3ncc(F)c(-c4cc(F)c5nc(C)n(C(C)C)c5c4)n3)nc2)CC1 + C=CC(=O)N1CCN(c2nc(=O)n(-c3c(C)ccnc3C(C)C)c3nc(-c4c(O)cccc4F)c(F)cc23)C(C)C1 | > 1000 nM | > 1000 nM | > 1000 nM | > 1000 nM | 571 nM | 107% | 95% | 98.4% | 129% | 104% | 101% | 103% | 117% | 109% | 103% | 99.7% | 113% | 102% | 108% | 139% | viability, T/C (second compound 0.1 µM, first compound 0.316 µM): 158%; viability, T/C (second compound 0.1 µM, first compound 1 µM): 96.6%; viability, T/C (second compound 0.316 µM, first compound 0.316 µM): 157%; viability, T/C (second compound 0.316 µM, first compound 1 µM): 105%; viability, T/C (second compound 1 µM, first compound 0.316 µM): 153%; viability, T/C (second compound 1 µM, first compound 1 µM): 99.7%; viability, T/C (second compound 3.16 µM, first compound 0.00316 µM): 92.2%; viability, T/C (second compound 3.16 µM, first compound 0.316 µM): 175%; viability, T/C (second compound 3.16 µM, first compound 1 µM): 73%; viability, T/C [16]: 69.1%; viability, T/C [17]: 64.8%; viability, T/C [18]: 83.3%; viability, T/C (second compound 10 µM, first compound 0.316 µM): 74.1%; viability, T/C (second compound 10 µM, first compound 1 µM): 27.5% |
| Cn1ncnc1[C@H]1c2n[nH]c(=O)c3cc(F)cc(c23)N[C@@H]1c1ccc(F)cc1 + C=CC(=O)N1CCN(c2nc(=O)n(-c3c(C)ccnc3C(C)C)c3nc(-c4c(O)cccc4F)c(F)cc23)C(C)C1 | > 100 nM | > 100 nM | > 100 nM | > 100 nM | 3.32 nM | 111% | 105% | 95% | 75.8% | 105% | 103% | 87.8% | 79% | 108% | 98.7% | 85.2% | 67.2% | 76.5% | 61.6% | 50.6% | viability, T/C (second compound 0.1 µM, first compound 0.000316 µM): 98.5%; viability, T/C (second compound 0.1 µM, first compound 0.001 µM): 97.1%; viability, T/C (second compound 0.316 µM, first compound 0.000316 µM): 106%; viability, T/C (second compound 0.316 µM, first compound 0.001 µM): 114%; viability, T/C (second compound 1 µM, first compound 0.000316 µM): 106%; viability, T/C (second compound 1 µM, first compound 0.001 µM): 105%; viability, T/C (second compound 3.16 µM, first compound 0.000316 µM): 99.6%; viability, T/C (second compound 3.16 µM, first compound 0.001 µM): 101%; viability, T/C (second compound 10 µM, first compound 0.000316 µM): 45%; viability, T/C (second compound 10 µM, first compound 0.001 µM): 60.2%; viability, T/C [16]: 51%; viability, T/C [17]: 28.3%; viability, T/C [18]: 32.9%; viability, T/C (second compound 10 µM, first compound 0.1 µM): 24.1% |
